According to article PMC12040169 (PLOS Biology, 2025):

assay: in vitro; conditions: human, hela cells, % viability

Row | Compound | viability at 28.5 h, 10 µM [%]
1 | O=C(Nc1ccsc1C(=O)O)c1ccc(Cl)cc1 [CBK076902] | 96.8
2 | CC(C)(C)OC(=O)N1CCC(CNS(=O)(=O)c2ccc3c(c2)OCCO3)CC1 [CBK076971] | 90.6
3 | O=S(=O)(Nc1ccccc1N1CCCCC1)c1ccc(Cl)cc1 [CBK077063] | 100
4 | CCOC(=O)c1sc(NS(=O)(=O)c2ccc(Cl)c(Cl)c2)nc1C [CBK077228] | 92.5
5 | O=C(O)CCSC(CC(=O)c1ccccc1)c1ccc(Cl)cc1 (stereo not drawn) [CBK077251] | 97.3
6 | COc1ccc(S(=O)(=O)N2CCCCC2C(=O)O)cc1 (stereo not drawn) [CBK077424] | 99.5
7 | CCOc1cc(/C=c2/sc3nc(=O)c(Cc4ccccc4)nn3c2=O)ccc1OC(C)=O [CBK077455] | 89.2
8 | Cc1ccc(Cn2ncc3c(NCCCN4CCOCC4)ncnc32)cc1 [CBK077470] | 94.4
9 | O=C(O)C1CSC(c2cccc(Cl)c2Cl)N1 (stereo not drawn) [CBK077526] | 106
10 | CC1CCN(c2nc3nonc3nc2Nc2ccc3c(c2)OCO3)CC1 [CBK077551] | 98.8
11 | OCCNc1ncnc2c1cnn2-c1ccccc1 [CBK077741C] | 81.3
12 | CCOC(=O)c1ccc(NS(=O)(=O)c2cc(Cl)ccc2Cl)cc1 [CBK077746] | 88.4
13 | COC(=O)C1=C(C)N=c2s/c(=C/c3ccc(OC)c(OC(C)=O)c3)c(=O)n2C1c1cccs1 (stereo not drawn) [CBK077753] | 88.3
14 | O=C(O)C1Nc2c(Cl)cc(Cl)cc2C2C=CCC12 (stereo not drawn) [CBK077855] | 78.5
15 | O=C(NCc1ccco1)c1ccccc1NS(=O)(=O)c1ccc(Br)s1 [CBK077969] | 79.9
16 | O=C(O)c1ccc(-c2ccc(/C=C3/NC(=O)N(c4ccc(Cl)cc4)C3=O)o2)cc1 [CBK077970] | 103
17 | Cc1ccc(C(C)C)c(OCc2ccc(C(=O)O)o2)c1 [CBK078089] | 108
18 | CC(=O)Nc1ccc(NCc2cc(Cl)ccc2OCc2ccc(Cl)cc2Cl)cc1 [CBK078179] | 90.8
19 | Cc1ccc(NC(=O)CN2C(=O)S/C(=C/c3ccc(-c4ccc(Cl)c(C(=O)O)c4)o3)C2=O)cc1 [CBK078256] | 86.3
20 | O=C(O)c1ccc(Cl)c(-c2ccc(/C=N/Nc3ccc([N+](=O)[O-])cc3)o2)c1 [CBK078331] | 97.8
21 | CC(C)(C)c1csc(NCc2c(O)ccc3ccccc23)n1 [CBK078381] | 92.9
22 | COc1ccc(C)cc1NS(=O)(=O)c1cc(I)c2occc2c1 [CBK078531] | 72.6
23 | CCC1CCCCN1C(=O)c1oc2ccccc2c1C (stereo not drawn) [CBK078548] | 107

Row | Compound | viability at 28.5 h, 10 µM [%]
24 | CCC1CCCCN1C(=O)c1cc2ccccc2o1 (stereo not drawn) [CBK078549] | 80.1
25 | COc1ccc(C(NC(=O)C2CCC(N)CC2)c2ccccc2C)cn1 (stereo not drawn) [CBK078551] | 92
26 | COc1cc([C@@]23CC[C@@H](NC(=O)Nc4cccc(C(F)(F)F)c4F)C[C@@H]2N(C)CC3)ccc1C#N [CBK078562] | 106
27 | CCCc1c(O)n[nH]c1Cc1ccc(Cl)cc1 [CBK078564] | 104
28 | CCOC(=O)c1sc(-c2ccc3c(c2)OCO3)nc1O [CBK078565] | 97.2
29 | Cc1ccc2c(c1)CC(=O)NC21CCN(CCc2noc3ccccc23)CC1 [CBK081072] | 92.2
30 | Cn1cc(CCO)c2ccccc21 [CBK081087] | 109
31 | CCCc1[nH]nc(O)c1CCc1c(F)cccc1Cl [CBK081121] | 93.8
32 | CCCc1[nH]nc(O)c1CC1CC1 [CBK081129] | 110
33 | COc1ccc([C@]23CN(C)C[C@H]2CCN(C(=O)Nc2ccc(Cl)c(F)c2)C3)cc1OC [CBK081140T] | 98.3
34 | Nc1ccc2cc(-c3ccsc3)cnc2n1 [CBK081167] | 101
35 | Nc1ccc2cc(-c3cccc(OCc4ccccc4)c3)cnc2n1 [CBK081172] | 108
36 | Nc1cc2cccnc2c(-c2cccc(C(F)(F)F)c2)n1 [CBK081177] | 106
37 | COc1ccc(C(C)C)cc1-c1nc(N)cc2cccnc12 [CBK081178] | 99.6
38 | CC(C)(C)c1ccc(-c2cc3ncccc3nc2N)cc1 [CBK081199] | 80.4
39 | COc1ccc(C(C)C)cc1-c1cc2ncccc2nc1N [CBK081202] | 89.3
40 | Nc1c(-c2ccsc2)cnc2cccnc12 [CBK081208] | 87.8
41 | COc1ccc(C(C)C)cc1-c1cnc2nc(N)ccc2c1 [CBK081216] | 97.7
42 | Nc1cc2cccnc2c(-c2ccsc2)n1 [CBK081218] | 89.6
43 | CCNC(=O)Nc1cc2cccnc2c(-c2ccsc2)n1 [CBK081226] | 106
44 | CCNC(=O)Nc1nc2cccnc2cc1-c1ccccc1 [CBK081239] | 101
45 | CC(C)C(=O)Nc1cc2cccnc2c(-c2ccc3c(c2)CCO3)n1 [CBK081260] | 114
46 | COc1ccc(C(C)C)cc1-c1cnc2nc(O)ccc2c1 [CBK081286] | 94.1

Row | Compound | viability at 28.5 h, 10 µM [%]
47 | CC(C)C(=O)Nc1cc2cccnc2c(-c2ccccc2)n1 [CBK081287] | 92.2
48 | Oc1nc2cccnc2cc1-c1ccc2c(c1)OCCCO2 [CBK081299] | 96
49 | Oc1ccc2cc(-c3ccc(OC(F)(F)F)cc3)cnc2n1 [CBK081300] | 32.8
50 | CC(C)(C)c1ccc(-c2cc3ncccc3nc2O)cc1 [CBK081302] | 97.1
51 | CCC1CCCCN1C(=O)c1c(Cl)cccc1Cl (stereo not drawn) [CBK081303] | 99.3
52 | COc1ccc([C@@]23CC[C@@H](NC(=O)Nc4cccc(Cl)c4)C[C@@H]2CN(C)C3)cc1OC [CBK081375T] | 96.8
53 | CCCc1[nH]nc(O)c1CCc1c(Cl)cccc1Cl [CBK081403] | 112
54 | CCC1CCCCN1C(=O)c1sc2ncccc2c1N (stereo not drawn) [CBK081410] | 112
55 | COc1ccc(CN2CCC(C(=O)NC(c3ccc(OC)nc3)c3ccccc3C)CC2)cc1 (stereo not drawn) [CBK081445T] | 86.7
56 | COc1ccc(C(NC(=O)C2CCN(Cc3ccc(OC)c(OC)c3)CC2)c2ccccc2C)cn1 (stereo not drawn) [CBK081452T] | 99.7
57 | COC(=O)[C@H](NC(=O)C1CCN(C(=O)OCc2ccccc2)CC1)c1ccccc1 [CBK081466] | 88.1
58 | COC(=O)[C@@H](NC(=O)C1CCN(C(=O)OCc2ccccc2)CC1)c1ccccc1 [CBK081468] | 107
59 | COc1ccc(C(NC(=O)N2CCN(C(=O)OCc3ccccc3)CC2)c2ccccc2C)cn1 (stereo not drawn) [CBK081469] | 91.2
60 | Oc1ccc2[nH]c3c(c2c1)CCNC31CCN(CCOc2ccccc2)C1 (stereo not drawn) [CBK081496] | 85.9
61 | CCc1ccccc1C(=O)N1CCCCC1CC (stereo not drawn) [CBK081556] | 81.9
62 | CCC1CCCCN1C(=O)c1ccc(C)c(Br)c1 (stereo not drawn) [CBK081559] | 100
63 | C[N+]1([O-])CCN(c2nccn(CCOc3cc(F)c(F)cc3F)c2=O)CC1 [CBK081593] | 101
64 | CCC1CCCCN1C(=O)c1cc(C)ccc1F (stereo not drawn) [CBK082754] | 108
65 | Cc1ccc(C(F)(F)F)cc1NS(=O)(=O)c1cc(OC2CCNCC2)c2occc2c1 [CBK082763C] | 90.1
66 | Clc1ccc(CN2CCN(c3nccnc3OCC3COc4ccccc4O3)CC2)cc1 (stereo not drawn) [CBK082786T] | 101
67 | FC(F)(F)c1ccc(CN2CCN(c3nccnc3OCC3COc4ccccc4O3)CC2)cc1 (stereo not drawn) [CBK082789T] | 115
68 | Cc1cccc(C)c1NC(=O)CN1CCN(c2nccnc2OCC2COc3ccccc3O2)CC1 (stereo not drawn) [CBK082801T] | 88.9
69 | CCN(CC)C(=O)CN1CCN(c2nccnc2OCC2COc3ccccc3O2)CC1 (stereo not drawn) [CBK082803T] | 96.5

Row | Compound | viability at 28.5 h, 10 µM [%]
70 | COc1ccc(CCN2CCN(c3nccnc3OCC3COc4ccccc4O3)CC2)cc1OC (stereo not drawn) [CBK082808T] | 104
71 | O=S(=O)(Nc1cc(F)cc(F)c1F)c1cc(OC2CCNCC2)c2occc2c1 [CBK082814C] | 83.9
72 | Cc1cccc(C)c1NC(=O)CN1CCN(c2nccnc2OC2CCCCC2)CC1 [CBK082835T] | 103
73 | CCOC(=O)CN1CCN(c2nccnc2OC2CCCCC2)CC1 [CBK082837T] | 102
74 | Clc1ccc(CN2CCC(Oc3nccnc3OC3CCCCC3)CC2)cc1 [CBK082856T] | 101
75 | CCOC(=O)CN1CCC(Oc2nccnc2OC2CCCCC2)CC1 [CBK082867T] | 106
76 | N#CCCCN1CCC(Oc2nccnc2OC2CCCCC2)CC1 [CBK082871T] | 101
77 | CSCCN1CCC(Oc2nccnc2OC2CCCCC2)CC1 [CBK082873T] | 97
78 | Clc1ccc(CN2CCN(c3nccnc3OCCN3CCOCC3)CC2)cc1Cl [CBK082884T] | 96.7
79 | Clc1ccc(CN2CCN(c3nccnc3OCCN3CCOCC3)CC2)cc1 [CBK082887T] | 97.4
80 | FC(F)(F)c1ccc(CN2CCN(c3nccnc3OCCN3CCOCC3)CC2)cc1 [CBK082890T] | 90.8
81 | c1ccc(-c2ccccc2CN2CCN(c3nccnc3OCCN3CCOCC3)CC2)cc1 [CBK082893T] | 90.7
82 | CCOC(=O)CN1CCN(c2nccnc2OCCN2CCOCC2)CC1 [CBK082897] | 93.9
83 | c1cnc(N2CCN(CCN3CCOCC3)CC2)c(OCCN2CCOCC2)n1 [CBK082899] | 105
84 | c1ccc2cc(CCN3CCN(c4nccnc4OCCN4CCOCC4)CC3)ccc2c1 [CBK082911T] | 87.6
85 | COc1ccc(CN2CCC(Oc3nccnc3OCCN3CCOCC3)CC2)cc1 [CBK082922T] | 90.8
86 | c1ccc(-c2ccccc2CN2CCC(Oc3nccnc3OCCN3CCOCC3)CC2)cc1 [CBK082924T] | 102
87 | Fc1ccc(CCN2CCC(Oc3nccnc3OCCN3CCOCC3)CC2)cc1 [CBK082937T] | 88.3
88 | c1cnc(OC2CCN(CC3CCCCC3)CC2)c(OCCN2CCOCC2)n1 [CBK082941T] | 87.3
89 | Cc1cc(COc2nccnc2OC2CCN(Cc3ccccc3F)CC2)no1 [CBK082948T] | 109
90 | COc1ccc(CN2CCC(Oc3nccnc3OCc3cc(C)on3)CC2)cc1 [CBK082953T] | 93.7
